The source of these data is patent publication US8258173B2, “Melatonin derivatives and their use as antioxidants” (University of Sunderland, priority 2006, dated 2012).

Experiment [1] deals with lipid peroxidation in bovine brain extract liposomes (hydroxyl radicals). Nature of the experiment: Antioxidant test, TBA assay (lipid peroxidation). It counts as biochemical. As to conditions: brain extract liposomes, FeCl3/ascorbic acid, 37° C. 30 min, absorbance 532 nm. Here is the method:
Ascorbic acid and propylgallate were purchased from Aldrich. N-Butanol and ethanol were purchased from BDH. Butylated hydroxytoluene (BHT), bovine brain extract, FeCl3, thiobarbituric acid (TBA) and PBS (phosphate buffered saline) tablets were purchased from Sigma. For spectroscopic measurements, a UNICAM UVNIS Spectrometer (UV2) was used. A well-controlled water bath was utilized for incubating the test system at the required temperatures. Plastic falcon tubes were used to accommodate the assay. Accurate pipettes were used to dispense the reagents.
The following liposomes and reagents were prepared in order to carry out the experiments. • 1. Brain extract (50 mg) was weighed into a clean universal container. About 7 glass balls and 10 cm^3 of PBS were added. The mixture was sonicated in an ice-water bath until the lipid was suspended and the suspension was homogeneous and milky in appearance. The suspension was kept cool during the sonication, although care was taken not to overfill the bath with ice as the sonication becomes relatively ineffective. • 2. Ascorbic acid (0.0176 g) was dissolved in deionised water and diluted in 100 cm^3 of volumetric flask. • 3. Ferric chloride hexahydrate (0.0270 g) was dissolved in deionized water and diluted in 100 cm^3 of volumetric flask. • 4. Sodium hydroxide (1 g) was dissolved in 500 cm^3 of deionized water. • 5. Phosphate buffered saline was prepared (PBS, pH=7.4). • 6. HCl (338 cm^3, 37%) was diluted with 162 cm^3 deionized water to give 500 cm^3 of 25% HCl. • 7. BHT (5 g) was dissolved in 250 cm^3 ethanol. • 8. TBA (5 g) was added to 500 cm^3, 50 mM NaOH, and the solution was heated with stirring to dissolve all the TBA. • 9. PG (0.1061 g) was dissolved in 500 cm^3 deionized water. • 10. A stock solution of test compound at 10 mg/cm^3 was prepared, the concentration depended on the estimated activity of the substance, and serial dilutions were made to obtain 5.0, 2.5, 1.25, 0.625, 0.3125 and 0.15625 mg/cm^3. The stock solution and these six dilutions were screened in the lipid peroxidation—TEA test, in attempt to obtain a dose response curve for antioxidant efficacy against concentration for the substance.
Sixty-eight centrifuge tubes were numbered. • 1. Test substance (0.1 cm^3) was added to tubes; 10 mg/cm^3 to No. 13-20 of tubes, 5 mg/cm^3 to No. 21-28, 2.5 mg/cm^3 to No. 29-36, 1.25 mg/cm^3 to No. 37-44, 0.625 mg/cm^3 to No. 45-52, 0.3125 mg/cm^3 to No. 53-60, 0.15625 mg/cm^3 to No. 61-68. • 2. PG (0.1 cm^3) was added to 9-12. • 3. Ethanol (0.1 cm^3) was added to No. 5-8. • 4. Deionized water (0.3 cm^3) was added to No. 1-4, deionized water (0.4 cm^3) was added to No. 17-20, 25-28, 33-36, 41-44, 49-52, 57-60, and 65-68. • 5. Liposome (0.2 cm^3) was added to No. 1-4, 5-8, 9-12, 13-16, 21-24, 29-32, 37-40, 45-48, 53-56 and 61-64. • 6. PBS (0.5 cm^3) was added to all tubes. • 7. Ferric chloride (0.1 cm^3, 1 mM) was added to No. 5-8, 9-12, 13-16, 21-24, 29-32, 37-40, 45-48, 53-56, and 61-64. • 8. Ascorbic acid (0.1 cm^3, 1 mM) was added to No. 5-8, 9-12, 13-16, 21-24, 29-32, 37-40, 45-48, 53-56 and 61-64. • 9. The tubes were incubated at 37° C. for 30 min. • 10. BHT (0.1 cm^3, 2%), TBA (0.5 cm^3, 1%) and HCl (0.5 cm^3, 25%) were added to all tubes. • 11. The tubes were heated at 85-90° C. for […]. • 12. The tubes were removed from heater and cooled. • 13. N-Butanol (2.5 cm^3) was added to all tubes. The tubes were then shaken to mix and spun at 3500 rpm at room temperature for 10 min. • 14. N-Butanol (2.5 cm^3) was removed and placed in cuvettes. • 15. Absorbance at 532 nm on a spectrophotometer was recorded, using n-butanol as blank. • 16. The mean and standard deviation were calculated. The % inhibition was calculated using equation (1).
[formula] • All data are expressed and mean±SEM (n=4). % inhibition was used to construct the graph and calculate IC50.

For experiment [2], the system named is HPV-16 immortalized human keratinocyte cell line. Nature of the experiment: Cell line test (MTT), keratinocyte proliferation. The note with it: HPV-16 immortalized human keratinocytes, 3 days incubation; read-out: MTT assay IG50. It counts as cell-based. From the text:
3-[4′,5′-Dimethylthiazol-2′-yl]-2,5-diphenyltetrazolium bromide (MTT), dimethyl sulphoxide (DMSO), isopropranol, foetal calf serum, and trypan blue were purchased from Sigma-Aldrich. Trypsin 250 was purchased from DIFCO. Ethylenediaminetetraacetic acid (EDTA), glucose, sodium phenol red, sodium chloride, potassium chloride, sodium hydrogen carbonate, potassium dihydrogen phosphate, and disodium hydrogen phosphate were purchased from BDH. Keratinocyte-SFM was purchased from GIBCO. For spectroscopic measurements, MRX Microplate Reader was used, which was controlled by Revelation Version 3.04.
The following solutions were prepared for use in the cell line test (MTT). • 1. Sodium chloride (8 g), potassium chloride (0.2 g), disodium hydrogen phosphate (1.15 g) and potassium dihydrogen phosphate (0.2 g) were dissolved in deionized water (1 L). This PBS solution was warmed to 37° C. at the time of use. • 2. Trypsin 250 (2.5 g), EDTA (0.2 g), glucose (1.0 g), potassium chloride (0.4 g), sodium chloride (8.0 g), sodium phenol red (0.002 g), and sodium hydrogen carbonate (0.58 g) were dissolved in deionized water (1 L). This solution was warmed to 37° C. at the time of use. • 3. Trypsin inhibitor solution was created by using feotal calf (1 ml) and was diluted in 100 ml of PBS. • 4. MTT powder (0.125 g) was dissolved in PBS buffer (25 ml) to give 5 mg/ml of MTT stock solution, which was stored at −20° C. and wrapped in foil to protect from light to create MTT stock solution. • 5. MTT stock solution was defrosted and diluted 1 in 10 in PBS buffer to give 0.5 mg/ml of working solution, which was prepared at the time of use to create an MTT working solution. • 5. Trypan blue solution was created by dissolving Trypan blue (0.04 g) in deionized water (10 ml).
The cell culture consisted of an HPV-16 immortalized human keratinocyte cell line from American Type Culture Collection (ATCC).
Cells were cultured in Serum-Free Keratinocyte Medium (Keratinocyte-SFM) supplemented with recombinant epidermal growth factor (rEGF) and bovine pituitary extract (BPE) in a T-75 flask under conditions of 5% C02 at 37° C. Fluid in the flask was changed with fresh complete medium every 3 days.
When cells grew to 60-80% confluence as determined under a microscope, the flask was washed with PBS. Small amount of trypsin-EDTA solution (1-2 ml) was added to the flask and incubated for 5 minutes at 37° C. When approximately 90% of the cells were dislodged, trypsin inhibitor solution (10 ml) was added to stop trypsin reaction. The cells were spun at 500 rpm for 10 minutes at room temperature. The cell pellet was gently resuspended in 10 ml of media. The basal cells were counted with a haemocytometer by adding trypan blue solution to determine viable cells. The cells were adjusted the density to 1×10^5 cells/mL in media.
A stock solution of each compound was prepared by dissolving compound (20 mg) in DMSO (1 ml), to give 20 mg/mL of stock solution.
A working solution was prepared by diluting a stock solution (20 μl) into media (1.98 ml) to give 200 μg/mL of working solution.
The following steps were performed to carry out the MMT experiment. 100 μl of resuspended cell suspension was added to test wells in 96-well plate, omitting column 11. Media was aspirated from each well after plate was incubated for 24 hours at 37° C., 5% CO2, then wells were washed with PBS. 100 μl of media containing 1% DMSO was added to each test well, omitting column 2. 200 μl of working solution of compound was added to each the wells, B2 to G2. 100 μl of solution was transferred to perform serial dilutions across the plate from column 2 up to column 9, and 100 μl of solution was discard from column 9. The plate was incubated for 3 days at 37° C., 5% C02. Media was removed, and wells were washed with PBS. Then 200 μl of MTT working solution was added to each well. After the plate was incubated for 2 hours at 37° C., MTT solution was removed and wells were washed with PBS. […]
In general terms: Formazan colour is commonly taken as a measure of viable cells.

For `COc1ccc(N)c(C(=O)CCNC(C)=O)c1` [AMK, reference compound], the results for the IC50 in experiment [1] and in experiment [2] were 280 µM and 408 µM, respectively.
